Test system: human mixed lymphocyte reaction (MLR)
Experiment: human mixed lymphocyte reaction (MLR) assay of immunosuppressant activity
Type: cell-based
Details: Table 1
Experimental: The immunosuppressant activity of the compounds of the present invention was determined using the human mixed lymphocyte reaction (MLR) assay described by Kino, T. et al. in Transplantation Proceedings XIX(5):36-39, Suppl. 6 (1987), incorporated herein by reference.

Row | Compound | IC50
1 | CC[C@@H]1/C=C(\C)C[C@H](C)C[C@H](OC)[C@H]2O[C@@](O)(C(=O)C(=O)N3CCCC[C@H]3C(=O)O[C@H](/C(C)=C/[C@@H]3CCC(N4CCC[C@@H]4CO)[C@H](OC)C3)[C@H](C)[C@@H](O)CC1=O)[C@H](C)C[C@@H]2OC (single isomer, unassigned) [Example 76] | < 1000 nM
2 | CC[C@@H]1/C=C(\C)C[C@H](C)C[C@H](OC)[C@H]2O[C@@](O)(C(=O)C(=O)N3CCCC[C@H]3C(=O)O[C@H](/C(C)=C/[C@@H]3CCC(N4CCC[C@H]4CO)[C@H](OC)C3)[C@H](C)[C@@H](O)CC1=O)[C@H](C)C[C@@H]2OC (single isomer, unassigned) [Example 109] | < 1000 nM
3 | CC[C@@H]1/C=C(\C)C[C@H](C)C[C@H](OC)[C@H]2O[C@@](O)(C(=O)C(=O)N3CCCC[C@H]3C(=O)O[C@H](/C(C)=C/[C@@H]3CCC(N4CCN(C(=O)OC(C)(C)C)CC4)[C@H](OC)C3)[C@H](C)[C@@H](O)CC1=O)[C@H](C)C[C@@H]2OC (stereo partly shown) [Example 11] | < 1000 nM
4 | CC[C@@H]1/C=C(\C)C[C@H](C)C[C@H](OC)[C@H]2O[C@@](O)(C(=O)C(=O)N3CCCC[C@H]3C(=O)O[C@H](/C(C)=C/[C@@H]3CCC(N4CCCCC4)[C@H](OC)C3)[C@H](C)[C@@H](O)CC1=O)[C@H](C)C[C@@H]2OC (stereo partly shown) [Example 14] | < 1000 nM
5 | CC[C@@H]1/C=C(\C)C[C@H](C)C[C@H](OC)[C@H]2O[C@@](O)(C(=O)C(=O)N3CCCC[C@H]3C(=O)O[C@H](/C(C)=C/[C@@H]3CCC(N4CCC5(CC4)OCCO5)[C@H](OC)C3)[C@H](C)[C@@H](O)CC1=O)[C@H](C)C[C@@H]2OC (stereo partly shown) [Example 16] | < 1000 nM
6 | CC[C@@H]1/C=C(\C)C[C@H](C)C[C@H](OC)[C@H]2O[C@@](O)(C(=O)C(=O)N3CCCC[C@H]3C(=O)O[C@H](/C(C)=C/[C@@H]3CCC(N4CCOCC4)[C@H](OC)C3)[C@H](C)[C@@H](O)CC1=O)[C@H](C)C[C@@H]2OC (stereo partly shown) [Example 18] | < 1000 nM
7 | CC[C@@H]1/C=C(\C)C[C@H](C)C[C@H](OC)[C@H]2O[C@@](O)(C(=O)C(=O)N3CCCC[C@H]3C(=O)O[C@H](/C(C)=C/[C@@H]3CCC(N4CCNCC4)[C@H](OC)C3)[C@H](C)[C@@H](O)CC1=O)[C@H](C)C[C@@H]2OC (stereo partly shown) [Example 22] | < 1000 nM
8 | CC[C@@H]1/C=C(\C)C[C@H](C)C[C@H](OC)[C@H]2O[C@@](O)(C(=O)C(=O)N3CCCC[C@H]3C(=O)O[C@H](/C(C)=C/[C@@H]3CCC(N4CCN(CC(=O)N5CCCC5)CC4)[C@H](OC)C3)[C@H](C)[C@@H](O)CC1=O)[C@H](C)C[C@@H]2OC (stereo partly shown) [Example 27] | < 1000 nM
9 | CC[C@@H]1/C=C(\C)C[C@H](C)C[C@H](OC)[C@H]2O[C@@](O)(C(=O)C(=O)N3CCCC[C@H]3C(=O)O[C@H](/C(C)=C/[C@@H]3CCC(N4CCN(CC(=O)N5CCOCC5)CC4)[C@H](OC)C3)[C@H](C)[C@@H](O)CC1=O)[C@H](C)C[C@@H]2OC (stereo partly shown) [Example 28] | < 1000 nM
10 | CC[C@@H]1/C=C(\C)C[C@H](C)C[C@H](OC)[C@H]2O[C@@](O)(C(=O)C(=O)N3CCCC[C@H]3C(=O)O[C@H](/C(C)=C/[C@@H]3CCC(N4CCN(C5CCCC5)CC4)[C@H](OC)C3)[C@H](C)[C@@H](O)CC1=O)[C@H](C)C[C@@H]2OC (stereo partly shown) [Example 31] | < 1000 nM
11 | CC[C@@H]1/C=C(\C)C[C@H](C)C[C@H](OC)[C@H]2O[C@@](O)(C(=O)C(=O)N3CCCC[C@H]3C(=O)O[C@H](/C(C)=C/[C@@H]3CCC(N4CCC(N5CCCC5)CC4)[C@H](OC)C3)[C@H](C)[C@@H](O)CC1=O)[C@H](C)C[C@@H]2OC (stereo partly shown) [Example 44] | < 1000 nM
12 | CC[C@@H]1/C=C(\C)C[C@H](C)C[C@H](OC)[C@H]2O[C@@](O)(C(=O)C(=O)N3CCCC[C@H]3C(=O)O[C@H](/C(C)=C/[C@@H]3CCC(N4CCC(O)CC4)[C@H](OC)C3)[C@H](C)[C@@H](O)CC1=O)[C@H](C)C[C@@H]2OC (stereo partly shown) [Example 67] | < 1000 nM
13 | CC[C@@H]1/C=C(\C)C[C@H](C)C[C@H](OC)[C@H]2O[C@@](O)(C(=O)C(=O)N3CCCC[C@H]3C(=O)O[C@H](/C(C)=C/[C@@H]3CCC(N4CCCCC4CO)[C@H](OC)C3)[C@H](C)[C@@H](O)CC1=O)[C@H](C)C[C@@H]2OC (stereo partly shown) [Example 105] | < 1000 nM
14 | CC[C@@H]1/C=C(\C)C[C@H](C)C[C@H](OC)[C@H]2O[C@@](O)(C(=O)C(=O)N3CCCC[C@H]3C(=O)O[C@H](/C(C)=C/[C@@H]3CCC(N4CCCC(CO)C4)[C@H](OC)C3)[C@H](C)[C@@H](O)CC1=O)[C@H](C)C[C@@H]2OC (stereo partly shown) [Example 106] | < 1000 nM
15 | CC[C@@H]1/C=C(\C)C[C@H](C)C[C@H](OC)[C@H]2O[C@@](O)(C(=O)C(=O)N3CCCC[C@H]3C(=O)O[C@H](/C(C)=C/[C@@H]3CCC(N4CCCCC4CCO)[C@H](OC)C3)[C@H](C)[C@@H](O)CC1=O)[C@H](C)C[C@@H]2OC (stereo partly shown) [Example 107] | < 1000 nM
16 | CC[C@@H]1/C=C(\C)C[C@H](C)C[C@H](OC)[C@H]2O[C@@](O)(C(=O)C(=O)N3CCCC[C@H]3C(=O)O[C@H](/C(C)=C/[C@@H]3CCC(N4CCCC(O)C4)[C@H](OC)C3)[C@H](C)[C@@H](O)CC1=O)[C@H](C)C[C@@H]2OC (stereo partly shown) [Example 108] | < 1000 nM

Further lines, results first:

Row | IC50 | Compound
17 | < 1000 nM | CC[C@@H]1/C=C(\C)C[C@H](C)C[C@H](OC)[C@H]2O[C@@](O)(C(=O)C(=O)N3CCCC[C@H]3C(=O)O[C@H](/C(C)=C/[C@@H]3CCC(N4CCN(C)CC4)[C@H](OC)C3)[C@H](C)[C@@H](O)CC1=O)[C@H](C)C[C@@H]2OC (stereo partly shown) [Example 5]
18 | < 1000 nM | CC[C@@H]1/C=C(\C)C[C@H](C)C[C@H](OC)[C@H]2O[C@@](O)(C(=O)C(=O)N3CCCC[C@H]3C(=O)O[C@H](/C(C)=C/[C@@H]3CCC(N4CCN(Cc5ccccc5)CC4)[C@H](OC)C3)[C@H](C)[C@@H](O)CC1=O)[C@H](C)C[C@@H]2OC (stereo partly shown) [Example 7]
19 | < 1000 nM | CC[C@@H]1/C=C(\C)C[C@H](C)C[C@H](OC)[C@H]2O[C@@](O)(C(=O)C(=O)N3CCCC[C@H]3C(=O)O[C@H](/C(C)=C/[C@@H]3CCC(N4CCN(c5ccccc5)CC4)[C@H](OC)C3)[C@H](C)[C@@H](O)CC1=O)[C@H](C)C[C@@H]2OC (stereo partly shown) [Example 9]
20 | < 1000 nM | CCC1C=C(C)CC(C)CC(OC)C2OC(O)(C(=O)C(=O)N3CCCCC3C(=O)OC(C(C)=CC3CCC(N4CCN(Cc5ccc([N+](=O)[O-])cc5)CC4)C(OC)C3)C(C)C(O)CC1=O)C(C)CC2OC (stereo not shown) [Example 12]
21 | < 1000 nM | CCC1C=C(C)CC(C)CC(OC)C2OC(O)(C(=O)C(=O)N3CCCCC3C(=O)OC(C(C)=CC3CCC(N4CCN(Cc5ccc6ccccc6c5)CC4)C(OC)C3)C(C)C(O)CC1=O)C(C)CC2OC (stereo not shown) [Example 13]
22 | < 1000 nM | CC[C@@H]1/C=C(\C)C[C@H](C)C[C@H](OC)[C@H]2O[C@@](O)(C(=O)C(=O)N3CCCC[C@H]3C(=O)O[C@H](/C(C)=C/[C@@H]3CCC(N4CCN(C=O)CC4)[C@H](OC)C3)[C@H](C)[C@@H](O)CC1=O)[C@H](C)C[C@@H]2OC (stereo partly shown) [Example 15]
23 | < 1000 nM | CC[C@@H]1/C=C(\C)C[C@H](C)C[C@H](OC)[C@H]2O[C@@](O)(C(=O)C(=O)N3CCCC[C@H]3C(=O)O[C@H](/C(C)=C/[C@@H]3CCC(N4CCN(CCO)CC4)[C@H](OC)C3)[C@H](C)[C@@H](O)CC1=O)[C@H](C)C[C@@H]2OC (stereo partly shown) [Example 17]
24 | < 1000 nM | CC[C@@H]1/C=C(\C)C[C@H](C)C[C@H](OC)[C@H]2O[C@@](O)(C(=O)C(=O)N3CCCC[C@H]3C(=O)O[C@H](/C(C)=C/[C@@H]3CCC(N4CCN(CCOCCO)CC4)[C@H](OC)C3)[C@H](C)[C@@H](O)CC1=O)[C@H](C)C[C@@H]2OC (stereo partly shown) [Example 19]
25 | < 1000 nM | CC[C@@H]1/C=C(\C)C[C@H](C)C[C@H](OC)[C@H]2O[C@@](O)(C(=O)C(=O)N3CCCC[C@H]3C(=O)O[C@H](/C(C)=C/[C@@H]3CCC(N4CCN(c5ccccn5)CC4)[C@H](OC)C3)[C@H](C)[C@@H](O)CC1=O)[C@H](C)C[C@@H]2OC (stereo partly shown) [Example 20]
26 | < 1000 nM | CC[C@@H]1/C=C(\C)C[C@H](C)C[C@H](OC)[C@H]2O[C@@](O)(C(=O)C(=O)N3CCCC[C@H]3C(=O)O[C@H](/C(C)=C/[C@@H]3CCC(N4CCN(c5ncccn5)CC4)[C@H](OC)C3)[C@H](C)[C@@H](O)CC1=O)[C@H](C)C[C@@H]2OC (stereo partly shown) [Example 21]
27 | < 1000 nM | CCC1C=C(C)CC(C)CC(OC)C2OC(O)(C(=O)C(=O)N3CCCCC3C(=O)OC(C(C)=CC3CCC(N4CCN(Cc5ccc6c(c5)OCO6)CC4)C(OC)C3)C(C)C(O)CC1=O)C(C)CC2OC (stereo not shown) [Example 38]
28 | < 1000 nM | CC[C@@H]1/C=C(\C)C[C@H](C)C[C@H](OC)[C@H]2O[C@@](O)(C(=O)C(=O)N3CCCC[C@H]3C(=O)O[C@H](/C(C)=C/[C@@H]3CCC(N4CCN(c5ccc(C(C)=O)cc5)CC4)[C@H](OC)C3)[C@H](C)[C@@H](O)CC1=O)[C@H](C)C[C@@H]2OC (stereo partly shown) [Example 39]
29 | < 1000 nM | CCOC(=O)N1CCN(C2CC[C@@H](/C=C(\C)[C@H]3OC(=O)[C@@H]4CCCCN4C(=O)C(=O)[C@]4(O)O[C@H]([C@@H](OC)C[C@@H](C)C/C(C)=C/[C@@H](CC)C(=O)C[C@H](O)[C@H]3C)[C@@H](OC)C[C@H]4C)C[C@H]2OC)CC1 (stereo partly shown) [Example 58]
30 | < 1000 nM | CC[C@@H]1/C=C(\C)C[C@H](C)C[C@H](OC)[C@H]2O[C@@](O)(C(=O)C(=O)N3CCCC[C@H]3C(=O)O[C@H](/C(C)=C/[C@@H]3CCC(N4CCN(C(C)=O)CC4)[C@H](OC)C3)[C@H](C)[C@@H](O)CC1=O)[C@H](C)C[C@@H]2OC (stereo partly shown) [Example 61]
31 | < 1000 nM | CC[C@@H]1/C=C(\C)C[C@H](C)C[C@H](OC)[C@H]2O[C@@](O)(C(=O)C(=O)N3CCCC[C@H]3C(=O)O[C@H](/C(C)=C/[C@@H]3CCC(N4CCN(CC(=O)NC(C)C)CC4)[C@H](OC)C3)[C@H](C)[C@@H](O)CC1=O)[C@H](C)C[C@@H]2OC (stereo partly shown) [Example 62]

Source: patent publication US5561140A, “Substituted alicyclic amine-containing macrocyclic immunomodulators” (Abbott Laboratories, priority 1995, dated 1996)
